{
  "source": "patent US20170165231A1",
  "about": "“TREATING EWING'S SARCOMA AND EWS-FLI1 RELATED DISORDERS” (STAR BIOTECHNOLOGY, LLC, priority 2012, published 2017)",
  "key": {"TC71 Luc cells": {"test_system": "TC71 Luc cells", "test": "TC71Luc Ewing's sarcoma xenograft murine model", "type": "in vivo, mice", "conditions": "continuous and prolonged API administration", "excerpt": "FIG. 3 (Smooth of Grouped-TC71 Luc Xenograft Animal Model) depicts data obtained from a TC71 Luc Ewing's sarcoma xenograft murine model for mice treated with the API in an EtOH (5%), PEG400 (40%), PBS formulation. The x-axis is time post-administration of the API in days with 0 being the first day of administration of API. The y-axis is tumor volume in mm^3.\nUsing a TC71Luc Ewing's sarcoma xenograft murine model, mice were subcutaneously injected with 1 million TC71 Luc cells. At a predetermined tumor volume (time=0), mice were given the first administration of API in an EtOH (5%), PEG400 (40%), PBS formulation. FIG. 3 depicts data obtained from control and for administration once per week (1×), three times per week (3×) and five times per week (5×) in each case at a dosage of 1.2 mg per mouse."}, "[1]": {"parameters": "species or system CF1 mice", "conditions": "in vivo; for HL_Lambda_z: CF1, mouse", "excerpt": "FIGS. 1A and 1B depict data of pharmacokinetic studies in CF1 mice with respect to administration of the API in the formulation shown in the Figures and via the route of administration shown in the Figures. […] In FIG. 1A group/dose=Group IV_IV_40; Rsq=0.9297; Rsq_adjusted=0.9062; HL_Lambda_z=4.7397 (hr); (5 points used in calculation); Uniform Weighting. […] In FIG. 1B group/dose=Group V_PO_40; Rsq=0.693; Rsq_adjusted=0.6163; HL_Lambda_z=2.0556 (hr); (6 points used in calculation); Uniform Weighting.\nFIGS. 2A and 2B depict data of pharmacokinetic studies in CF1 mice with respect to administration of the API in the formulation shown in the Figures and via the route of administration shown in the Figures. […] In FIG. 2A dose/route=Group III_PO_150; Rsq=0.9685; Rsq_adjusted=0.9528; HL_Lambda_z=4.2505 (hr); (4 points used in calculation); Uniform Weighting. […] In FIG. 2B dose/route=Group VI_PO_400; Rsq=0.9971; Rsq_adjusted=0.9957; HL_Lambda_z=1.9461 (hr); (4 points used in calculation); Uniform Weighting.\nPharmacokinetics and bioavailability data was obtained from animal studies for a 50% PEG 400 plus 10% EtOH plus PBS formulation (Groups 1, 2 & 3) and a 40% PEG 400 plus 5% EtOH plus 18% TPGS plus PBS formulation (Groups 4, 5 & 6) and are shown below in Table 2.\nThe API was administered to CF1 mice. Blood was drawn from the mice at predetermined time intervals. Plasma was isolated from the blood and analyzed using LCMS to determine amounts of API (ng/mL). The data shown in FIG. 1A was obtained for IV administration of 40 mg/kg of API in a formulation containing 40% PEG400, 5% EtOH and 18% TPGS (d-alpha tocopheryl PEG1000 succinate). The data shown in FIG. 1B was obtained for PO administration of 40 mg/kg of API in a formulation containing 40% PEG400, 5% EtOH and 18% TPGS (d-alpha tocopheryl PEG1000 succinate). The data shown in FIG. 2A was obtained for PO administration of 150 mg/kg of API in a formulation containing 50% PEG400 and 10% EtOH. The data shown in FIG. 2B was obtained for PO administration of 400 mg/kg of API in a formulation containing 40% PEG400, 5% EtOH and 18% TPGS (d-alpha tocopheryl PEG1000 succinate). Time 0 in FIGS. 1A, 1B, 2A and 2B represent the time of administration of the API."}, "[2]": {"conditions": "unformulated compound, background statement; cited from earlier work"}},
  "note": "Where two headings read alike, the source gives them in different places.",
  "data": [
    {"smiles": "COc1ccc(C(=O)CC2(O)C(=O)Nc3c(Cl)ccc(Cl)c32)cc1", "note": "(stereo not shown) [compound of Formula I, 4,7-Dichloro-1,3-dihydro-3-hydroxy-3[2-(4-methoxyphenyl)-2-oxoethyl]-2H-indol-2-one]", "values": [
      {"measurement": "tumor abatement", "setting": "TC71 Luc cells", "value": "increased tumor abatement"},
      {"measurement": "HL_Lambda_z", "setting": "[1]; iv, 40 mg/kg", "value": 4.7397, "unit": "h"},
      {"measurement": "HL_Lambda_z", "setting": "[1]; po, 40 mg/kg", "value": 2.0556, "unit": "h"},
      {"measurement": "HL_Lambda_z", "setting": "[1]; po, 150 mg/kg", "value": 4.2505, "unit": "h"},
      {"measurement": "HL_Lambda_z", "setting": "[1]; po, 400 mg/kg", "value": 1.9461, "unit": "h"},
      {"measurement": "clearance rate from plasma", "setting": "[1]; mouse", "value": "rapid"},
      {"measurement": "solubility in water", "setting": "[2]", "value": "highly insoluble"}
    ]}
  ]
}
